From patent US20100075370A1, “METHOD FOR DETERMINATION OF CELL VIABILITY BY USING FLOW CYTOMETRY WITH FIXED VOLUME ACQUISITION” (TUMORTEC GMBH, priority 2006, published 2010)

Test system: pBMC from patients with CLL
Test: Cytotoxicity of several antineoplastic agents on pBMC (LC90), fixed volume flow cytometry
Type: cell-based, human
Conditions: in µg/mL
From the text: The necessary peripheral blood (PB) samples from adult patients diagnosed with chronic lymphatic leukaemia (CLL) were collected into heparin during routine diagnosis prior to administration of chemotherapy.

[1] = pBMC of CLL patient #1, ex vivo
[2] = pBMC of CLL patient #2, ex vivo
[3] = pBMC of CLL patient #3, ex vivo
[4] = pBMC of CLL patient #4, ex vivo
[5] = pBMC of CLL patient #5, ex vivo
[6] = pBMC of CLL patient #6, ex vivo
[7] = pBMC of CLL patient #7, ex vivo
[8] = pBMC of CLL patient #8, ex vivo
[9] = pBMC of CLL patient #9, ex vivo
[10] = pBMC of CLL patient #10, ex vivo
[11] = pBMC of CLL patient #11, ex vivo
[12] = pBMC of CLL patient #12, ex vivo
[13] = pBMC of CLL patient #13, ex vivo
[14] = pBMC of CLL patient #14, ex vivo
[15] = pBMC of CLL patient #15, ex vivo
[16] = pBMC of CLL patient #16, ex vivo
[17] = pBMC of CLL patient #17, ex vivo
[18] = pBMC of CLL patient #18, ex vivo
[19] = pBMC of CLL patient #19, ex vivo
[20] = pBMC of CLL patient #20, ex vivo
[21] = pBMC of CLL patient #21, ex vivo
[22] = pBMC of CLL patient #22, ex vivo
[23] = pBMC of CLL patient #23, ex vivo
[24] = pBMC of CLL patient #24, ex vivo
[25] = pBMC of CLL patient #25, ex vivo

| Compound | LC90 [1] | LC90 [2] | LC90 [3] | LC90 [4] | LC90 [5] | LC90 [6] | LC90 [7] | LC90 [8] | LC90 [9] | LC90 [10] | LC90 [11] | LC90 [12] | LC90 [13] | LC90 [14] | LC90 [15] | LC90 [16] | LC90 [17] | LC90 [18] | LC90 [19] | LC90 [20] | also measured |
| --- | --- | --- | --- | --- | --- | --- | --- | --- | --- | --- | --- | --- | --- | --- | --- | --- | --- | --- | --- | --- | --- |
| C[C@]12C=CC(=O)C=C1CC[C@@H]1[C@@H]2[C@@H](O)C[C@@]2(C)[C@H]1CC[C@]2(O)C(=O)CO [Prednisolone ®, Prednisolone] | 40.69 | 21.96 | 12.17 | 2.25 | 12.67 | 0.88 | 35.35 | 29.81 | 33.00 | 11.71 | 0.46 | 0.86 | 2.56 | 0.56 | 0.82 | 0.19 | 35.69 | 0.51 | 0.98 | 99.92 | LC90 [21]: 0.54; LC90 [22]: 12.76; LC90 [23]: 0.82; LC90 [24]: 48.18; LC90 [25]: 0.48 |
| O=C1c2c(O)ccc(O)c2C(=O)c2c(NCCNCCO)ccc(NCCNCCO)c21 [Novantrone ®, Mitoxantrone] | 0.06 | 0.03 | 0.19 | 0.15 | 0.11 | 13.37 | 0.14 | 0.02 | 0.10 | 0.05 | 12.80 | 0.06 | 0.40 | 0.09 | 0.05 | 0.01 | 0.03 | 0.08 | 0.07 | 0.02 | LC90 [21]: 0.05; LC90 [22]: 0.05; LC90 [23]: 0.01; LC90 [24]: 12.77; LC90 [25]: 0.17 |
| CC[C@]1(O)C[C@H]2CN(CCc3c([nH]c4ccccc34)[C@@](C(=O)OC)(c3cc4c(cc3OC)N(C=O)[C@H]3[C@@](O)(C(=O)OC)[C@H](OC(C)=O)[C@]5(CC)C=CCN6CC[C@]43[C@@H]65)C2)C1 [Oncovin ®, Vincristin] | 2.51 | 0.47 | 0.14 | 10.96 | 0.33 | 0.07 | 0.88 | 10.23 | 0.47 | 0.41 | 0.21 | 0.97 | 0.24 | 0.04 | 0.44 | 0.13 | 0.41 | 0.70 | 0.10 | 0.42 | LC90 [21]: 0.10; LC90 [22]: 0.30; LC90 [23]: 0.08; LC90 [24]: 61.57; LC90 [25]: 0.23 |
| Nc1nc(Cl)nc2c1ncn2[C@H]1C[C@H](O)[C@@H](CO)O1 [Cladribine ®, Cladribine] | 0.185 | 0.184 | 0.159 | 0.107 | 0.083 | 0.080 | 0.063 | 0.059 | 0.052 | 0.048 | 0.047 | 0.040 | 0.029 | 0.027 | 0.024 | 0.017 | 0.015 | 0.013 | 0.007 | 0.006 | LC90 [21]: 0.005; LC90 [22]: 0.004; LC90 [23]: 0.000; LC90 [24]: 8.100; LC90 [25]: 1.967 |
